Measured values reported in patent US20250361230A1, “LATS Inhibitors and Uses Thereof” (The USA, as Represented by the Secretary, Dept. of Heath …, priority 2022, published 2025).

Legend:
Type in all cases: biochemical
[1] = biological target: AKT (Homo sapiens, UniProt P31749); assay: RBC HotSpot kinase assay (33P-ATP, P81 filter-binding), AKT; details: Table 28, biochemical kinase assay; read-out: AKT IC50
How it was run: (§1)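 IC50 in nM was derived from 10-point, single-replicate titrations. Read-out was radiometric P81 filter binding following a 2 h room-temperature reaction with 33P-ATP, after 20 min compound preincubation.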

[2] = biological target: T1, LATS1 (Homo sapiens, UniProt O95835); assay: RBC HotSpot kinase assay (33P-ATP, P81 filter-binding), LATS1; details: Table 28, biochemical kinase assay; read-out: LATS1 IC50
T1 sequence (O95835 1-1130): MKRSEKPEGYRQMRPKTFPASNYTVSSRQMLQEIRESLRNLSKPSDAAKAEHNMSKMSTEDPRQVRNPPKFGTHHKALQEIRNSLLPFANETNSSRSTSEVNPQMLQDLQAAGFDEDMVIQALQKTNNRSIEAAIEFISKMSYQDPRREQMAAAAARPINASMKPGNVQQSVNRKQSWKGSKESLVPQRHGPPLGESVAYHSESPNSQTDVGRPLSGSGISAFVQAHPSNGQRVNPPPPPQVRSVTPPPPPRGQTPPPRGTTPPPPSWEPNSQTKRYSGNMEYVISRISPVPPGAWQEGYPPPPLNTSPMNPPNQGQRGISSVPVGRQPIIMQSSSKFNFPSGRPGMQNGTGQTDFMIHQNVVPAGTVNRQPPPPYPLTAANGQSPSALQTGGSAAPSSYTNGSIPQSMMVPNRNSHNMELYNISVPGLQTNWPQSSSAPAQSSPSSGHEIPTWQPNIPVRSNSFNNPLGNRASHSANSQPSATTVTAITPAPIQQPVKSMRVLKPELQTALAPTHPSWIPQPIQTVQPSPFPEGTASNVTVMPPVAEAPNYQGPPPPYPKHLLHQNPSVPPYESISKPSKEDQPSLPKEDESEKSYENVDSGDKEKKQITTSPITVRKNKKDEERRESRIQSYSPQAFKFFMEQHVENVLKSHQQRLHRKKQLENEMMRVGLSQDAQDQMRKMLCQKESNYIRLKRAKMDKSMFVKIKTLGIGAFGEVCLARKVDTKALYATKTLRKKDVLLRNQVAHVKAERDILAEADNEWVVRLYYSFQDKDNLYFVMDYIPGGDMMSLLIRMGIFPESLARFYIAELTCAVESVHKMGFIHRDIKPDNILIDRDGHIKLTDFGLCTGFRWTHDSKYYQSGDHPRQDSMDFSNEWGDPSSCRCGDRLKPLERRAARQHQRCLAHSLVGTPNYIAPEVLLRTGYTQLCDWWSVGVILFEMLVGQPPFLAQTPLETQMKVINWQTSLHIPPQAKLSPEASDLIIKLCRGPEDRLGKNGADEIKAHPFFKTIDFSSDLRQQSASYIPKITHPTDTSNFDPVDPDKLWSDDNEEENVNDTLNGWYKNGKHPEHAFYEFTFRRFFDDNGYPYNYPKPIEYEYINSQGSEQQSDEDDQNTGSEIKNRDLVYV
How it was run: as §1

[3] = biological target: T2, LATS2 (Homo sapiens, UniProt Q9NRM7); assay: RBC HotSpot kinase assay (33P-ATP, P81 filter-binding), LATS2; details: Table 28, biochemical kinase assay; read-out: LATS2 IC50
T2 sequence (Q9NRM7 1-1088): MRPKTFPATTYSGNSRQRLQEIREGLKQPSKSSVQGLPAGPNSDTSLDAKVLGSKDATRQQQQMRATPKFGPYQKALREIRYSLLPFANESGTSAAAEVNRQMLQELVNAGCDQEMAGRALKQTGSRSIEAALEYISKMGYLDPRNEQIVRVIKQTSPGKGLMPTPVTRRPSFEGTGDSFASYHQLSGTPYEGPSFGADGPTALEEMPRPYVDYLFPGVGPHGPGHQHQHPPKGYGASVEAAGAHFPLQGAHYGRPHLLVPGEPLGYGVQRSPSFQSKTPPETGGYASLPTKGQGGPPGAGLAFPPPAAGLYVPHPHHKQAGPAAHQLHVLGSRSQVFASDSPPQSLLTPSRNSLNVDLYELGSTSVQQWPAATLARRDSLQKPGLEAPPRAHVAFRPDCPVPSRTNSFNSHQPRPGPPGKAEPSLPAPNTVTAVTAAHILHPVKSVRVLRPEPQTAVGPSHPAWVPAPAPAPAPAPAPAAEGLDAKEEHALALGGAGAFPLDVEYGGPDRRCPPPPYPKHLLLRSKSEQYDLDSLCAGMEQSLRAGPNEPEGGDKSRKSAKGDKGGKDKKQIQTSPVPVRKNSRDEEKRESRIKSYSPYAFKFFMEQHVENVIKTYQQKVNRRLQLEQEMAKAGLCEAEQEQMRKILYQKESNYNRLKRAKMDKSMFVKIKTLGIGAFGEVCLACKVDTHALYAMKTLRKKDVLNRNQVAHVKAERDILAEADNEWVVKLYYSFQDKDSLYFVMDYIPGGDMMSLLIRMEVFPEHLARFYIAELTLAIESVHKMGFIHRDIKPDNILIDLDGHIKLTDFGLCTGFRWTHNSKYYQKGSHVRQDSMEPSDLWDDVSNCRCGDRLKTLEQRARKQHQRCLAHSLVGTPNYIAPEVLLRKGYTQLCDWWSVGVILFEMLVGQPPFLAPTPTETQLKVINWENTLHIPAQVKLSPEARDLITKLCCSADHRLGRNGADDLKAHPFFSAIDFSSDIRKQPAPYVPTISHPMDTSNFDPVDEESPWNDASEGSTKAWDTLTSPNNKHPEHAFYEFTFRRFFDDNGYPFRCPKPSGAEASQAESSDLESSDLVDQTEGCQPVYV
How it was run: as §1

Chain of AKT (P31749 whole entry): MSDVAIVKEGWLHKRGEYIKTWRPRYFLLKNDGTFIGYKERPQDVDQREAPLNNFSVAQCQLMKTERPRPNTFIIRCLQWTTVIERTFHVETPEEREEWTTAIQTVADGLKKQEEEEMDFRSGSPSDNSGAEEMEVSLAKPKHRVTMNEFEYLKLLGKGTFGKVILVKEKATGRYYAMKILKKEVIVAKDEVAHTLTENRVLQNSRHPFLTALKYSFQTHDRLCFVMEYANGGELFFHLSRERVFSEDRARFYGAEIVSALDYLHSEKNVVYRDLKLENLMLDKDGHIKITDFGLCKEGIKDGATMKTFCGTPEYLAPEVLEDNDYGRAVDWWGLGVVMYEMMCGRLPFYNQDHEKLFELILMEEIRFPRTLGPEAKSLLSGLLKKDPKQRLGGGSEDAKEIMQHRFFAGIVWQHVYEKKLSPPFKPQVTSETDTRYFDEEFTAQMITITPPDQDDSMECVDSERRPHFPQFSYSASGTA

Structure (SMILES) | IC50 [1] | IC50 [2] | IC50 [3]
C[C@@H]1CNC[C@H](C)[C@@]1(O)c1ccc(-c2ccnc3[nH]cc(F)c23)cc1Cl [Compound 1, (3S,4S,5R)-4-(2-chloro-4-(3-fluoro-1H-pyrrolo[2,3-b]pyridin-4-yl)phenyl)-3,5-dimethylpiperidin-4-ol] | 15.4 nM | 11.3 nM | 14.6 nM
C[C@@H]1CNC[C@H](C)[C@@]1(O)c1ccc(-c2ccnc3[nH]cc(F)c23)cc1 [Compound 2, (3R,4s,5S)-4-(4-(3-fluoro-1H-pyrrolo[2,3-b]pyridin-4-yl)phenyl)-3,5-dimethylpiperidin-4-ol] | 147 nM | 16 nM | 12.5 nM
C[C@@H]1CNC[C@H](C)[C@@]1(O)c1ccc(-c2ccnc3[nH]cc(F)c23)cc1F [Compound 7, (3S,4s,5R)-4-(2-fluoro-4-(3-fluoro-1H-pyrrolo[2,3-b]pyridin-4-yl)phenyl)-3,5-dimethyl piperidin-4-ol] | 192 nM | 15.9 nM | 6.3 nM
C[C@@H]1CNC[C@H](C)[C@@]1(O)c1ccc(-c2ccnc3[nH]cc(F)c23)nc1 [Compound 8, (3S,4s,5R)-4-(6-(3-fluoro-1H-pyrrolo[2,3-b]pyridin-4-yl)pyridin-3-yl)-3,5-dimethylpiperidin-4-ol] | 3330 nM | 53 nM | 203 nM
Cc1cc(-c2ccnc3[nH]cc(F)c23)ccc1[C@@]1(O)[C@H](C)CNC[C@@H]1C [Compound 9, (3S,4s,5R)-4-(4-(3-fluoro-1H-pyrrolo[2,3-b]pyridin-4-yl)-2-methylphenyl)-3,5-dimethylpiperidin-4-ol] | 89.2 nM | 9.4 nM | 6.6 nM
C[C@@H]1CNC[C@H](C)[C@@]1(O)c1c(F)cc(-c2ccnc3[nH]cc(F)c23)cc1F [Compound 13] | 362 nM | 8.5 nM | 7.2 nM
C[C@@H]1CNC[C@H](C)[C@@]1(O)c1ccc(-c2ccnc3[nH]cc(F)c23)cc1OC(F)(F)F [Compound 14, (3S,4s,5R)-4-(4-(3-fluoro-1H-pyrrolo[2,3-b]pyridin-4-yl)-2-(trifluoromethoxy)phenyl)-3,5-dimethylpiperidin-4-ol] | 112 nM | 5.4 nM | 5.5 nM
C[C@@H]1CN(Cc2ccccn2)C[C@H](C)[C@@]1(O)c1c(F)cc(-c2ccnc3[nH]cc(F)c23)cc1F [Compound 17, (3S,4s,5R)-4-(2,6-difluoro-4-(3-fluoro-1H-pyrrolo[2,3-b]pyridin-4-yl)phenyl)-3,5-dimethyl-1-(pyridin-2-ylmethyl)piperidin-4-ol] | 1070 nM | 10.9 nM | 11.9 nM
C[C@@H]1CN(C)C[C@H](C)[C@@]1(O)c1cnc(-c2ccnc3[nH]cc(F)c23)cc1Cl [Compound 22, (3S,4s,5R)-4-(4-chloro-6-(3-fluoro-1H-pyrrolo[2,3-b]pyridin-4-yl)pyridin-3-yl)-1,3,5-trimethylpiperidin-4-ol] | 505 nM | 1.1 nM | 4.1 nM
Cc1cc(-c2ccnc3[nH]cc(F)c23)ccc1[C@@]1(O)[C@H](C)CN(C2COC2)C[C@@H]1C [Compound 24, (3S,4s,5R)-4-(4-(3-fluoro-1H-pyrrolo[2,3-b]pyridin-4-yl)-2-methylphenyl)-3,5-dimethyl-1-(oxetan-3-yl)piperidin-4-ol] | 374 nM | 5.7 nM | 5.7 nM
Cc1cc(-c2ccnc3[nH]cc(F)c23)ccc1[C@@]1(O)[C@H](C)CN(C(C)C)C[C@@H]1C [Compound 29, (3S,4s, 5R)-4-(4-(3-fluoro-1H-pyrrolo[2,3-b]pyridin-4-yl)-2-methylphenyl)-1-isopropyl-3,5-dimethylpiperidin-4-ol] | 43.5 nM | 1.3 nM | 2.2 nM
Cc1cc(-c2ccnc3[nH]cc(F)c23)cc(F)c1C1(O)[C@H](C)CN(C2COC2)C[C@@H]1C (stereo partly drawn) [Compound 30, (3S,5R)-4-(2-fluoro-4-(3-fluoro-1H-pyrrolo[2,3-b]pyridin-4-yl)-6-methylphenyl)-3,5-dimethyl-1-(oxetan-3-yl)piperidin-4-ol] | 698 nM | 5.9 nM | 9 nM
C[C@@H]1CN(C2CCS(=O)(=O)CC2)C[C@H](C)C1(O)c1c(F)cc(-c2ccnc3[nH]cc(F)c23)cc1F (stereo partly drawn) [Compound 31, 4-((3S,5R)-4-(2,6-difluoro-4-(3-fluoro-1H-pyrrolo[2,3-b]pyridin-4-yl)phenyl)-4-hydroxy-3,5-dimethylpiperidin-1-yl)tetrahydro-2H-thiopyran 1,1-dioxide] | 129 nM | 6.7 nM | 6.3 nM
C[C@@H]1CN(C)C[C@H](C)[C@@]1(O)c1ccc(-c2ccnc3[nH]cc(F)c23)cc1 [Compound 39, (3R,4s,5S)-4-(4-(3-fluoro-1H-pyrrolo[2,3-b]pyridin-4-yl)phenyl)-1,3,5-trimethylpiperidin-4-ol] | 213 nM | 19.5 nM | 24.7 nM
C[C@@H]1CN(C)C[C@H](C)[C@@]1(O)c1ccc(-c2ccnc3[nH]cc(F)c23)nc1 [Compound 41, (3R,4s,5S)-4-(6-(3-fluoro-1H-pyrrolo[2,3-b]pyridin-4-yl)pyridin-3-yl)-1,3,5-trimethylpiperidin-4-ol] | 4140 nM | 61 nM | 268 nM
C[C@@H]1CN(C2COC2)C[C@H](C)[C@@]1(O)c1c(F)cc(-c2ccnc3[nH]cc(F)c23)cc1F [Compound 45, (3S,4s,5R)-4-(2,6-difluoro-4-(3-fluoro-1H-pyrrolo[2,3-b]pyridin-4-yl)phenyl)-3, S-dimethyl-1-(oxetan-3-yl)piperidin-4-ol] | 1170 nM | 3.4 nM | 9.8 nM
C[C@@H]1CN(C2CCC2)C[C@H](C)[C@@]1(O)c1c(F)cc(-c2ccnc3[nH]cc(F)c23)cc1F [Compound 46, (3R,4s,5S)-1-cyclobutyl-4-(2,6-difluoro-4-(3-fluoro-1H-pyrrolo[2,3-b]pyridin-4-yl)phenyl)-3,5-dimethylpiperidin-4-ol] | 358 nM | 1.7 nM | 4 nM
Cc1cc(-c2ccnc3[nH]cc(F)c23)ncc1[C@@]1(O)[C@H](C)CN(C2CCC2)C[C@@H]1C [Compound 48, (3R,4s,5S)-1-cyclobutyl-4-(6-(3-fluoro-1H-pyrrolo[2,3-b]pyridin-4-yl)-4-methylpyridin-3-yl)-3,5-dimethylpiperidin-4-ol] | 6110 nM | 2.9 nM | 16.1 nM
